How the values were obtained:
Assay type in all cases: in vivo
[1] = test system: soybean (Glycine max var. Winchester); assay: Preemergence herbicidal activity, soybean; conditions: Rate of Application 0.3 Kg/Ha, examined after 12-17 days
Experimental: (§1) The benzofused heterocyclic compounds of this invention were tested for pre- and postemergence herbicidal activity using a variety of crops and weeds. The test plants included soybean (Glycine max var. Winchester), field corn (Zea mays var. Pioneer 3732), wheat (Triticum aestivum var. Lew), morningglory (Ipomea lacunosa or Ipomea hederacea), velvetleaf (Abutilon theophrasti), green foxtail (Setaria viridis), Johnsongrass (Sorghum halepense), blackgrass (Aloepecurus myosuroides), common chickweed (Stellaria media), and common cocklebur (Xanthium strumarium L.).
(§2) For preemergence testing, two disposable fiber flats (8 cm×15 cm×25 cm) for each rate of application of each candidate herbicide were filled to an approximate depth of 6.5 cm with steam-sterilized sandy loam soil. The soil was leveled and impressed with a template to provide five evenly spaced furrows 13 cm long and 0.5 cm deep in each flat. Seeds of soybean, wheat, corn, green foxtail, and johnsongrass were planted in the furrows of the first flat, and seeds of velvetleaf, morningglory, common chickweed, cocklebur, and blackgrass were planted in the furrows of the second flat. The five-row template was employed to firmly press the seeds into place. A topping soil of equal portions of sand and sandy loam soil was placed uniformly on top of each flat to a depth of approximately 0.5 cm. Flats for postemergence testing were prepared in the same manner except that they were planted 9-14 days prior to the preemergence flats and were placed in a greenhouse and watered, thus allowing the seeds to germinate and the foliage to develop.
(§3) In both pre- and postemergence tests, a stock solution of the candidate herbicide was prepared by dissolving 0.27 g of the compound in 20 mL of water/acetone (50/50) containing 0.5% v/v sorbitan monolaurate. For an application rate of 3000 g/ha of herbicide a 10 mL portion of the stock solution was diluted with water/acetone (50/50) to 45 mL.
(§4) The preemergence flats were initially subjected to a light water spray. The four flats were placed two by two along a conveyor belt (i.e., the two preemergence followed by the two postemergence flats). The conveyor belt fed under a spray nozzle mounted about ten inches above the post-emergent foliage. The preemergent flats were elevated on the belt so that the soil surface was at the same level below the spray nozzle as the foliage canopy of the postemergent plants. The spray of herbicidal solution was commenced and once stabilized, the flats were passed under the spray at a speed to receive a coverage equivalent of 100 L/ha. At this coverage the application rates are those shown in the above table for the individual herbicidal solutions. The preemergence flats were watered immediately thereafter, placed in the greenhouse and watered regularly at the soil surface. The postemergence flats were immediately placed in the green-house and not watered until 24 hours after treatment with the test solution. Thereafter they were regularly watered at ground level. After 12-17 days the plants were examined and the phytotoxicity data were recorded.
(§5) Phytotoxicity data were taken as percent control. Percent control was determined by a method similar to the 0 to 100 rating system disclosed in “Research Methods in Weed Science,” 2nd ed., B. Truelove, Ed.; Southern Weed Science Society; Auburn University, Auburn, Ala., 1977.

[2] = test system: wheat (Triticum aestivum var. Lew); assay: Preemergence herbicidal activity, wheat; conditions: Rate of Application 0.3 Kg/Ha, examined after 12-17 days
Experimental: as §1, §2, §3, §4, §5

[3] = test system: field corn (Zea mays var. Pioneer 3732); assay: Preemergence herbicidal activity, corn; conditions: Rate of Application 0.3 Kg/Ha, examined after 12-17 days
Experimental: as §1, §2, §3, §4, §5

[4] = test system: velvetleaf (Abutilon theophrasti); assay: Preemergence herbicidal activity, velvetleaf; conditions: Rate of Application 0.3 Kg/Ha, examined after 12-17 days
Experimental: as §1, §2, §3, §4, §5

[5] = test system: morningglory (Ipomea lacunosa or Ipomea hederacea); assay: Preemergence herbicidal activity, morningglory; conditions: Rate of Application 0.3 Kg/Ha, examined after 12-17 days
Experimental: as §1, §2, §3, §4, §5

[6] = test system: common chickweed (Stellaria media); assay: Preemergence herbicidal activity, chickweed; conditions: Rate of Application 0.3 Kg/Ha, examined after 12-17 days
Experimental: as §1, §2, §3, §4, §5

[7] = test system: common cocklebur (Xanthium strumarium L.); assay: Preemergence herbicidal activity, cocklebur; conditions: Rate of Application 0.3 Kg/Ha, examined after 12-17 days
Experimental: as §1, §2, §3, §4, §5

[8] = test system: green foxtail (Setaria viridis); assay: Preemergence herbicidal activity, green foxtail; conditions: Rate of Application 0.3 Kg/Ha, examined after 12-17 days
Experimental: as §1, §2, §3, §4, §5

[9] = test system: Johnsongrass (Sorghum halepense); assay: Preemergence herbicidal activity, johnsongrass; conditions: Rate of Application 0.3 Kg/Ha, examined after 12-17 days
Experimental: as §1, §2, §3, §4, §5

[10] = test system: soybean (Glycine max var. Winchester); assay: Postemergence herbicidal activity, soybean; conditions: rate of application 0.3 Kg/Ha, rated after 12-17 days
Experimental: as §1, §2, §3, §4, §5

[11] = test system: wheat (Triticum aestivum var. Lew); assay: Postemergence herbicidal activity, wheat; conditions: rate of application 0.3 Kg/Ha, rated after 12-17 days
Experimental: as §1, §2, §3, §4, §5

[12] = test system: field corn (Zea mays var. Pioneer 3732); assay: Postemergence herbicidal activity, corn; conditions: rate of application 0.3 Kg/Ha, rated after 12-17 days
Experimental: as §1, §2, §3, §4, §5

[13] = test system: velvetleaf (Abutilon theophrasti); assay: Postemergence herbicidal activity, velvetleaf; conditions: rate of application 0.3 Kg/Ha, rated after 12-17 days
Experimental: as §1, §2, §3, §4, §5

[14] = test system: morningglory (Ipomea lacunosa or Ipomea hederacea); assay: Postemergence herbicidal activity, morningglory; conditions: rate of application 0.3 Kg/Ha, rated after 12-17 days
Experimental: as §1, §2, §3, §4, §5

[15] = test system: common cocklebur (Xanthium strumarium L.); assay: Postemergence herbicidal activity, cocklebur; conditions: rate of application 0.3 Kg/Ha, rated after 12-17 days
Experimental: as §1, §2, §3, §4, §5

[16] = test system: green foxtail (Setaria viridis); assay: Postemergence herbicidal activity, green foxtail; conditions: rate of application 0.3 Kg/Ha, rated after 12-17 days
Experimental: as §1, §2, §3, §4, §5

[17] = test system: Johnsongrass (Sorghum halepense); assay: Postemergence herbicidal activity, johnsongrass; conditions: rate of application 0.3 Kg/Ha, rated after 12-17 days
Experimental: as §1, §2, §3, §4, §5

## CCCCc1cc2c(Cl)ccc(-n3c(=O)cc(C(F)(F)F)n(C)c3=O)c2o1 [Compound 225]
[1]
  PREEMERGENCE HERBICIDAL ACTIVITY (% CONTROL) SOY: 40%
[2]
  PREEMERGENCE HERBICIDAL ACTIVITY (% CONTROL) WHT: 20%
[3]
  PREEMERGENCE HERBICIDAL ACTIVITY (% CONTROL) CRN: 30%
[4]
  PREEMERGENCE HERBICIDAL ACTIVITY (% CONTROL) ABUTH: 90%
[5]
  PREEMERGENCE HERBICIDAL ACTIVITY (% CONTROL) IPOSS: 50%
[6]
  PREEMERGENCE HERBICIDAL ACTIVITY (% CONTROL) STEME: 70%
[7]
  PREEMERGENCE HERBICIDAL ACTIVITY (% CONTROL) XANPE: 50%
[8]
  PREEMERGENCE HERBICIDAL ACTIVITY (% CONTROL) SETVI: 100%
[9]
  PREEMERGENCE HERBICIDAL ACTIVITY (% CONTROL) SORHA: 60%
[10]
  Postemergence herbicidal activity (% control) SOY: 60%
[11]
  Postemergence herbicidal activity (% control) WHT: 30%
[12]
  Postemergence herbicidal activity (% control) CRN: 60%
[13]
  Postemergence herbicidal activity (% control) ABUTH: 100%
[14]
  Postemergence herbicidal activity (% control) IPOSS: 75%
[15]
  Postemergence herbicidal activity (% control) XANPE: 70%
[16]
  Postemergence herbicidal activity (% control) SETVI: 90%
[17]
  Postemergence herbicidal activity (% control) SORHA: 60%

Source: patent publication US6352958B1, “Cycloimido-substituted benzofused heterocyclic herbicides” (FMC Corporation, priority 1997, dated 2002)
